{
  "source": "patent US7022875B2",
  "about": "“Thiobutacin and antifungal and antioomycete composition for controlling plant diseases using the same” (Korea University Industry and Academy Cooperation Foundation, priority 2003, dated 2006)",
  "key": {"[1]": {"tested_on": "Phytophthora capsici infection on pepper plants", "assay": "Control efficacy against Phytophthora blight on pepper plants in a growth room", "format": "in vivo", "procedure": "The commercial fungicide metalaxyl was used to compare the antifungal activity with thiobutacin against Phytophthora capsici infection on pepper plants in a growth room. Before the pepper plant was inoculated with Phytophthora capsici infection, disease severity was determined both for each treated with various concentrations of thiobutacin and metalaxyl and for the untreated control. Disease severity on pepper plants was rated daily after inoculation based on a scale 0-5: 0=no visible disease symptoms; 1=leaves slightly wilted with brownish lesions beginning to appear on stems; 2=30-50% of entire plant diseased; 3=50-70% of entire plant diseased; 4=70-90% of entire plant diseased; and 5=plant dead."}, "[2]": {"tested_on": "Alternaria mali", "assay": "MIC in microtiter plates", "format": "cell-based"}, "[3]": {"tested_on": "Botrytis cinerea", "assay": "MIC in microtiter plates", "format": "cell-based", "conditions": "96 h, 28° C., 4 days, complete inhibition of growth"}, "[4]": {"tested_on": "Cladosporium cucumerinum", "assay": "MIC in microtiter plates", "format": "cell-based", "conditions": "96 h, 28° C., 4 days, complete inhibition of growth"}, "[5]": {"tested_on": "Colletotrichum orbiculare", "assay": "MIC in microtiter plates", "format": "cell-based"}, "[6]": {"tested_on": "Fusarium oxysporum f.sp. cucumerinum", "assay": "MIC in microtiter plates", "format": "cell-based"}, "[7]": {"tested_on": "Magnaporthe grisea", "assay": "microbe, parasite or virus in culture", "format": "cell-based"}, "[8]": {"tested_on": "Phytophthora capsici", "assay": "microbe, parasite or virus in culture", "format": "cell-based", "conditions": "96 h, 28° C., 4 days"}, "[9]": {"tested_on": "Rhizoctonia solani", "assay": "MIC in microtiter plates", "format": "cell-based"}, "[10]": {"tested_on": "Candida albicans", "assay": "microbe, parasite or virus in culture", "format": "cell-based", "conditions": "96 h, 28° C., 4 days"}, "[11]": {"tested_on": "Saccharomyces cerevisiae", "assay": "microbe, parasite or virus in culture", "format": "cell-based", "conditions": "96 h, 28° C., 4 days"}, "[12]": {"tested_on": "Bacillus subtilis", "assay": "microbe, parasite or virus in culture", "format": "cell-based", "conditions": "96 h, 28° C., 4 days"}, "[13]": {"tested_on": "Erwinia carotovora subsp. carotovora", "assay": "microbe, parasite or virus in culture", "format": "cell-based", "conditions": "Pectobacterium carotovorum, 96 h; 28° C., 4 days"}, "[14]": {"tested_on": "Ralstonia solanacearum", "assay": "microbe, parasite or virus in culture", "format": "cell-based", "conditions": "96 h"}, "[15]": {"tested_on": "Xanthomonas campestris pv. Vesicatoria", "assay": "microbe, parasite or virus in culture", "format": "cell-based", "conditions": "96 h, 28° C., 4 days"}, "[16]": {"conditions": "from 4 days after inoculation, treated plants"}, "[17]": {"conditions": "from 5 days after inoculation, 10 μg/ml"}, "[18]": {"conditions": "96 h, 28° C., 4 days, complete inhibition of growth"}},
  "data": [
    {"smiles": "COCC(=O)N(c1c(C)cccc1C)C(C)C(=O)OC", "note": "(stereo not drawn) [metalaxyl, reference compound]", "values": [
      {"measurement": "disease symptoms on pepper plants", "setting": "[1]; [16]", "result": "did not exhibit any symptoms"},
      {"measurement": "disease symptoms on pepper plants", "setting": "[1]; [17]", "result": "slight disease symptoms"},
      {"measurement": "disease symptoms on pepper plants", "setting": "[1]; from 5 days after inoculation, 50 μg/ml", "result": "exhibited the disease development in the leaves"},
      {"measurement": "disease symptoms on pepper plants", "setting": "[1]; higher concentrations than 100 μg/ml", "result": "did not show any phytophthora development"}
    ]},
    {"smiles": "CSC(CC(=O)c1ccccc1N)C(=O)O", "note": "(stereo not drawn) [thiobutacin, 4-(2-aminophenyl)-4-oxo-2-methylthio-butanoic acid]", "values": [
      {"measurement": "growth inhibition (in words)", "setting": "[2]", "result": "not inhibited"},
      {"measurement": "MIC", "setting": "[2]; [18]", "result": "> 100", "unit": "µg/mL"},
      {"measurement": "MIC", "setting": "[3]", "result": 50, "unit": "µg/mL"},
      {"measurement": "MIC", "setting": "[4]", "result": 50, "unit": "µg/mL"},
      {"measurement": "growth inhibition (in words)", "setting": "[5]", "result": "not inhibited"},
      {"measurement": "MIC", "setting": "[5]; [18]", "result": "> 100", "unit": "µg/mL"},
      {"measurement": "MIC", "setting": "[6]; 96 h, Fusarium oxysporum f.sp. cucumerinum, 28° C., 4 days, complete inhibition of growth", "result": "> 100", "unit": "µg/mL"},
      {"measurement": "growth inhibition (in words)", "setting": "[6]; Fusarium oxysporum f. sp. cucumerinum", "result": "not inhibited"},
      {"measurement": "growth inhibition (in words)", "setting": "[7]; Magnaporthe grisea", "result": "not inhibited"},
      {"measurement": "MIC", "setting": "[7]; Pyricularia oryzae, 96 h", "result": "> 100", "unit": "µg/mL"},
      {"measurement": "MIC", "setting": "[8]", "result": 10, "unit": "µg/mL"},
      {"measurement": "growth inhibition (in words)", "setting": "[9]", "result": "not inhibited"},
      {"measurement": "MIC", "setting": "[9]; [18]", "result": "> 100", "unit": "µg/mL"},
      {"measurement": "MIC", "setting": "[10]", "result": "> 100", "unit": "µg/mL"},
      {"measurement": "MIC", "setting": "[11]", "result": 30, "unit": "µg/mL"},
      {"measurement": "MIC", "setting": "[12]", "result": "> 100", "unit": "µg/mL"},
      {"measurement": "MIC", "setting": "[13]", "result": "> 100", "unit": "µg/mL"},
      {"measurement": "MIC", "setting": "[14]", "result": "> 100", "unit": "µg/mL"},
      {"measurement": "MIC", "setting": "[15]", "result": "> 100", "unit": "µg/mL"},
      {"measurement": "disease symptoms on pepper plants", "setting": "[1]; after 10 days, 100 μg/ml", "result": "slight damages"},
      {"measurement": "disease symptoms on pepper plants", "setting": "[1]; after 10 days, 500 μg/ml", "result": "did not show any phytophthora infection"},
      {"measurement": "disease symptoms on pepper plants", "setting": "[1]; [16]", "result": "did not exhibit any symptoms"},
      {"measurement": "disease symptoms on pepper plants", "setting": "[1]; [17]", "result": "exhibited the disease development in the leaves"}
    ]}
  ]
}
